For assay [1], the target named is T1, thrombin (Homo sapiens, UniProt P00734). As to the kind of experiment: Determination of the thrombin-inhibitory activity in plasma samples (ecarin-activated). The assay is classed as biochemical. Particulars: citrate plasma, ecarin activation, fluorogenic thrombin substrate; in some cases means of individual determinations. The gist of the method:
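Citrate plasma activated with ecarin (final 20 mU per reaction) in Ca buffer (Hepes, NaCl, CaCl2, PEG), with compound diluted from DMSO into water. Fluorogenic thrombin substrate at final 50 μmol/l; fluorescence (ex 360/em 465 nm) read each minute for 20 minutes, with buffer-only unstimulated control.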

Assay [2] has as its target T1, thrombin. Description: Measurement of the thrombin inhibition in buffer. The assay is classed as biochemical. The note with it: human thrombin 0.06 nmol/l in Tris buffer pH 7.4, 22° C., substrate Boc-Asp(OBzl)-Pro-Arg-AMC; in some cases means of individual determinations. In outline: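 Compound pre-incubated 15 min at 22° C with 0.06 nmol/l human thrombin in 50 mmol/l Tris, 100 mmol/l NaCl, 0.1% BSA, pH 7.4, then 5 μmol/l Boc-Asp(OBzl)-Pro-Arg-AMC added for 30 min. AMC fluorescence read at 360/460 nm against DMSO controls; IC50 from concentration–activity curves.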

For orientation: IC50 means the point on the concentration scale where inhibition reaches its midpoint. The low end stands for inhibition by little substance, the high end for a need for much substance. In the case of `COc1cc(C(=O)N2CC(C)(CCO)OCC2COC(F)F)cc2nc(NCc3cc(Cl)ccn3)oc12` (single isomer, unassigned) [Example 60, (2-{[(4-Chloropyridin-2-yl)methyl]amino}-7-methoxy-1,3-benzoxazol-5-yl){5-[(difluoromethoxy)methyl]-2-(2-hydroxyethyl)-2-methylmorpholin-4-yl}methanone], the IC50 against thrombin [1] stood at 24 nM; on thrombin [2], 5.2 nM.
Turning to `COc1cc(C(=O)N2CCOC(C)(CC(C)O)C2)cc2nc(NCc3cc(Cl)ccn3)oc12` (single isomer, unassigned) [Example 61, (2-{[(4-Chloropyridin-2-yl)methyl]amino}-7-methoxy-1,3-benzoxazol-5-yl) [2-(2-hydroxypropyl)-2-methylmorpholin-4-yl]methanone], the IC50 on thrombin [1] was determined as 100 nM; at thrombin [2] it was 24 nM.
For the compound `COc1cc(C(=O)N2CC(C)(C)OCC2CC(C)O)cc2nc(NCc3cc(Cl)ccn3)oc12` (single isomer, unassigned) [Example 62, (2-{[(4-Chloropyridin-2-yl)methyl]amino}-7-methoxy-1,3-benzoxazol-5-yl) [5-(2-hydroxypropyl)-2,2-dimethylmorpholin-4-yl]methanone], the results for the IC50 against thrombin [1] and against thrombin [2] were 107 nM and 68 nM, respectively.
The corresponding values for `COc1cc(C(=O)N2CC(C)(C)OCC2CC(C)O)cc2nc(NCc3cc(Cl)ccn3)oc12` (single isomer, unassigned) [Example 63, (2-{[(4-Chloropyridin-2-yl)methyl]amino}-7-methoxy-1,3-benzoxazol-5-yl) [5-(2-hydroxypropyl)-2,2-dimethylmorpholin-4-yl]methanone] are 20 nM and 11 nM.
On to `COc1cc(C(=O)N2CC(C)(C)OCC2CC(C)O)cc2nc(NCc3cc(Cl)ccn3)oc12` (single isomer, unassigned) [Example 65, (2-{[(4-Chloropyridin-2-yl)methyl]amino}-7-methoxy-1,3-benzoxazol-5-yl) [5-(2-hydroxypropyl)-2,2-dimethylmorpholin-4-yl]methanone], for which the figures for the IC50 against thrombin [1] and at thrombin [2] were 61 nM and 24 nM, respectively.
For `COc1cc(C(=O)N2CC(C)OCC2CC(C)O)cc2nc(NCc3cc(Cl)ccn3)oc12` (single isomer, unassigned) [Example 67, (2-{[(4-Chloropyridin-2-yl)methyl]amino}-7-methoxy-1,3-benzoxazol-5-yl) [5-(2-hydroxypropyl)-2-methylmorpholin-4-yl]methanone] the same measures were 38 nM and 16 nM.
For the compound `COc1cc(C(=O)N2CC(C)OCC2CCO)cc2nc(NCc3cc(Cl)ccn3)oc12` (single isomer, unassigned) [Example 72, (2-{[(4-Chloropyridin-2-yl)methyl]amino}-7-methoxy-1,3-benzoxazol-5-yl) [5-(2-hydroxyethyl)-2-methylmorpholin-4-yl]methanone], the IC50 on thrombin [1] was found to be 37 nM; at thrombin [2], 29 nM.
Regarding `COCC1C(=O)N2CCC2CN1C(=O)c1cc(OC)c2oc(NCc3cc(Cl)ccn3)nc2c1` (single isomer, unassigned) [Example 74, 4-[(2-{[(4-Chloropyridin-2-yl)methyl]amino}-7-methoxy-1,3-benzoxazol-5-yl)carbonyl]-3-(methoxymethyl)-1,4-diazabicyclo[4.2.0]octan-2-one], the IC50 came to 56 nM on thrombin [1] and 32 nM against thrombin [2].
For the compound `COc1cc(C(=O)N2CC3CCN3C(=O)C2C)cc2nc(NCc3cc(Cl)ccn3)oc12` (single isomer, unassigned) [Example 75, 4-[(2-{[(4-Chloropyridin-2-yl)methyl]amino}-7-methoxy-1,3-benzoxazol-5-yl)carbonyl]-3-methyl-1,4-diazabicyclo[4.2.0]octan-2-one], the values for the IC50 on thrombin [1] and at thrombin [2] were 48 nM and 32 nM, respectively.
The corresponding values for `COc1cc(C(=O)N2CC3(CC3)NC(=O)C2C)cc2nc(NCc3cc(Cl)ccn3)oc12` (single isomer, unassigned) [Example 77, 7-[(2-{[(4-Chloropyridin-2-yl)methyl]amino}-7-methoxy-1,3-benzoxazol-5-yl)carbonyl]-6-methyl-4,7-diazaspiro[2.5]octan-5-one] are 23 nM and 14 nM.
For `CCC1C(=O)NC2(CC2)CN1C(=O)c1cc(OC)c2oc(NCc3cc(Cl)ccn3)nc2c1` (single isomer, unassigned) [Example 79, 7-[(2-{[(4-Chloropyridin-2-yl)methyl]amino}-7-methoxy-1,3-benzoxazol-5-yl)carbonyl]-6-ethyl-4,7-diazaspiro[2.5]octan-5-one] the same measures were 14 nM and 4.5 nM.
The corresponding values for `CCC1C(=O)NC(C)CN1C(=O)c1cc(OC)c2oc(NCc3cc(Cl)ccn3)nc2c1` (single isomer, unassigned) [Example 80, 4-[(2-{[(4-Chloropyridin-2-yl)methyl]amino}-7-methoxy-1,3-benzoxazol-5-yl)carbonyl]-3-ethyl-6-methylpiperazin-2-one] are 16 nM and 16 nM.
As to `CCC1C(=O)NC(C)CN1C(=O)c1cc(OC)c2oc(NCc3cc(Cl)ccn3)nc2c1` (single isomer, unassigned) [Example 81, 4-[(2-{[(4-Chloropyridin-2-yl)methyl]amino}-7-methoxy-1,3-benzoxazol-5-yl)carbonyl]-3-ethyl-6-methylpiperazin-2-one], the values for the IC50 against thrombin [1] and against thrombin [2] were 32 nM and 12 nM, respectively.
As to `COc1cc(C(=O)N2CC(C)(C)NC(=O)C2CC#N)cc2nc(NCc3cc(Cl)ccn3)oc12` (single isomer, unassigned) [Example 84, {1-[(2-{[(4-chloropyridin-2-yl)methyl]amino}-7-methoxy-1,3-benzoxazol-5-yl)carbonyl]-5,5-dimethyl-3-oxopiperazin-2-yl}acetonitrile], the IC50 at thrombin [1] is 21 nM; against thrombin [2] it was 11 nM.
The corresponding values for `COc1cc(C(=O)N2CC(C)CCC2CCO)cc2nc(NCc3cc(Cl)ccn3)oc12` (single isomer, unassigned) [Example 85, (2-{[(4-Chloropyridin-2-yl)methyl]amino}-7-methoxy-1,3-benzoxazol-5-yl) [2-(2-hydroxyethyl)-5-methylpiperidin-1-yl]methanone] are 47 nM and 17 nM.
For the compound `COc1cc(C(=O)N2CC(C)CCC2C2(O)CC2)cc2nc(NCc3cc(Cl)ccn3)oc12` (single isomer, unassigned) [Example 89, (2-{[(4-Chloropyridin-2-yl)methyl]amino}-7-methoxy-1,3-benzoxazol-5-yl) [2-(1-hydroxycyclopropyl)-5-methylpiperidin-1-yl]methanone], the concentration for half-maximal inhibition (IC50) against thrombin [1] stood at 35 nM; on thrombin [2], 17 nM.
In the case of `COc1cc(C(=O)N2CC(C)CCC2C2(O)CC2)cc2nc(NCc3cc(Cl)ccn3)oc12` (single isomer, unassigned) [Example 90, (2-{[(4-Chloropyridin-2-yl)methyl]amino}-7-methoxy-1,3-benzoxazol-5-yl) [2-(1-hydroxycyclopropyl)-5-methylpiperidin-1-yl]methanone], the values for the IC50 against thrombin [1] and at thrombin [2] were 94 nM and 28 nM, respectively.
Take `COc1cc(C(=O)N2CC(C)CCC2C2(O)CC2)cc2nc(NCc3cc(Cl)ccn3)oc12` (single isomer, unassigned) [Example 91, (2-{[(4-Chloropyridin-2-yl)methyl]amino}-7-methoxy-1,3-benzoxazol-5-yl) [2-(1-hydroxycyclopropyl)-5-methylpiperidine-1-yl]methanone]: the results for the IC50 against thrombin [1] and against thrombin [2] were 24 nM and 13 nM, respectively.
On to `COc1cc(C(=O)N2CC(C)NC(=O)C2CC#N)cc2nc(NCc3cc(Cl)ccn3)oc12` (single isomer, unassigned) [Example 92, {1-[(2-{[(4-Chloropyridin-2-yl)methyl]amino}-7-methoxy-1,3-benzoxazol-5-yl)carbonyl]-5-methyl-3-oxopiperazin-2-yl}acetonitrile], for which the IC50 amounted to 148 nM on thrombin [1] and 96 nM at thrombin [2].
On to `COc1cc(C(=O)N2CC(C)(C)OCC2C(C)(C)O)cc2nc(NCc3cc(Cl)ccn3)oc12` (single isomer, unassigned) [Example 93, (2-{[(4-Chloropyridin-2-yl)methyl]amino}-7-methoxy-1,3-benzoxazol-5-yl) [5-(2-hydroxypropan-2-yl)-2,2-dimethylmorpholin-4-yl]methanone], for which the IC50 at thrombin [1] amounted to 17 nM; against thrombin [2], 8.8 nM.
With `COc1cc(C(=O)N2CC(C)(C)OCC2C2(O)CC2)cc2nc(NCc3cc(Cl)ccn3)oc12` (single isomer, unassigned) [Example 94, (2-{[(4-Chloropyridin-2-yl)methyl]amino}-7-methoxy-1,3-benzoxazol-5-yl) [5-(1-hydroxycyclopropyl)-2,2-dimethylmorpholin-4-yl]methanone], the IC50 at thrombin [1] worked out at 28 nM; against thrombin [2] it was 18 nM.
For `COc1cc(C(=O)N2CC(C)(C)OCC2C(C)O)cc2nc(NCc3cc(Cl)ccn3)oc12` (single isomer, unassigned) [Example 95, (2-{[(4-Chloropyridin-2-yl)methyl]amino}-7-methoxy-1,3-benzoxazol-5-yl) [5-(1-hydroxyethyl)-2,2-dimethylmorpholin-4-yl]methanone] the same measures were 13 nM and 6.8 nM.

Values taken from patent publication US20160108027A1, “SUBSTITUTED BENZOXAZOLES” (BAYER PHARMA AKTIENGESELLSCHAFT, priority 2013, published 2016).
